{"source": "patent EP0998939A1", "about": "“Chalcone plant extracts for use in therapy” (THE SCHOOL OF PHARMACY, UNIVERSITY OF LONDON, priority 1998, dated 2000)", "key": {"[1]": {"tested_on": "swiss 3T3 mouse fibroblast cells", "assay": "Cell culture 3[H] thymidine assay, Example 6.3 inhibition of TPA induced proliferation (24 hours prior incubation with compound)", "assay_type": "cell-based", "settings": "compound 24 hours before compound + 0.5µM TPA", "method": "(§1) Cells used were swiss 3T3 mouse fibroblast cells • 1. 6 x 24 well plates were required for each experiment. • 2. Cells were removed from the standard tissue culture flask using a 1% solution of EDTA and resuspended in 10 ml of media and pipetted off into a falcon tube. • 3. The cells were then spun for 5 minutes at about 2,000rpm. • 4. The existing media was removed, and the cells again resuspended in 10ml of 10% foetal calf serum (FCS) and vortexed. • 5. The 10ml of suspension was then added to 140ml of media and mixed in a sterile jar. 1ml of the media cell suspension was then placed into each well and the plates incubated until confluent, three days .\n(§2) • 1. [PCl]Cells were dosed with the test compounds (as specified below) 2 days prior to the addition of 3 [H]thymidine. The cells could only be dosed with a 0.5% solution, 5µl test solution in 1ml cellsuspension i.e. 5µl in 1ml, (TPA - 0.5µM). • 2. 0.5µl of 3[H] thymidine was added per well, therefore 72µl was added to 144µl of media (1%F.C.S.) to dose the corresponding six plates. • 3. 100µl of the media was taken to measure the measure the radioactive dose […], and added to 4ml of scintillation fluid. • 4. The radioactive media was then transferred to sterile specimen tubes and dosed with the test compounds before adding to the cells. • 5. After four hours ofbeing pulsed with radiolabelled thymidine (0.5µCi/ml) the media was removed and washed down the sink. • 6. The cells were washed twice with ice cold phosphate buffered saline (PBS), 0.5ml per well, and incubated for 30 min using ice cold 5% trichloroacetic acid (TCA) ( 1ml) per well at room temperature. • 8. The TCA was then removed and another 1ml of 5% TCA was added for 5 minutes. After the TCA was removed and 0.3NaOH and 0.1% sodium dodecyl sulphate added to each well for 30 minutes (1ml/well). • 9. The contents of each well was added to scintillation vials containing 4ml of scintillation fluid and each sample counted for four minutes using a scintillation counter. Three different assays were carried out using this protocol; • 6.1. Cytotoxicity testing of the compounds. After 48 hours of incubation and the cells were confluent a predetermined quantity of the test compounds was added to the cells. • 6.2. Inhibition of TPA induced proliferation. After 48 hours a preditermined quantity concentration of the test compounds was added to the cells as well as 0.5um of TPA. […] Inhibition of TPA induced proliferation. After 48 hours a predetermined quantity concentration of the test compounds was added to the cells for 24 hours, at 72 hours the media was changed again to contain both test compound and 0.5µM of the TPA. The objective of this experiment was to observe whether the prior incubation with the test compound had any effect on the TPA induced proliferation of the cells."}, "[2]": {"tested_on": "Blood platelets", "assay": "Inhibition of blood platelet aggregation (TPA or ADP induced) in platelet rich plasma", "assay_type": "cell-based, human", "settings": "for Percentage Inhibition of ADP Induced Aggregation: ADP 6.4 µg; for Percentage Inhibition of TPA Induced Aggregation: TPA 0.5µg", "method": "Blood platelets release inflammatory mediators in response to an external stimulus, which affect the proliferation of the cells, which is an important part of the disease psoriasis. • 1. Male human blood was collected via venipucture of the forearm directly in to anticoagulant buffer, from healthy donors who had denied any medication for two weeks, and centrifuged at 1000rpm for 20 minutes at room temperature. • 2. The supernatant was employed as platelet rich plasma (PRP). Platelet poor plasma (PPP) was obtained by centrifuging 1ml of PRP at 11,000 rpm for 10 minutes. • 3. Inhibition of platelet aggregation was tested by adding 2.5µl of a known concentration (containing 10µg or 50µg) of the test compound to a 500µl sample ofPRP for one minute. An aggregation agent was then added as a solution to the sample in a 2.5µl quantity (containing TPA 0.5,µg or ADP 6.4 µg). Aggregation was measured using a dual channel aggregometer . • 4. Aggregation was taken as the % change in light transmission compared to the maximum change produced by TPA or ADP plus the control solution. PRP was used as a standard for zero light transmission and PP for 100% light transmission."}, "[3]": {"tested_on": "male Wistar rats", "assay": "UV-B induced erythema (dermatitis) in rat, epidermal thickness and number of epidermal cell layers", "assay_type": "in vivo", "settings": "five days; for No. of cells (epidermal proliferation as compared to the control, no treatment) / Thickness (epidermal thickening as compared to the control, no treatment): control = 100", "method": "Rat UV-B induced dermatitis is characterised by a brownish red lesion with scab formation. Histologically, microvascular dilation, intraepidermal accumulation ofleukocytes and hyperproliferation of epidermal cells are all very similar to the symptoms of psoriasis in man (Nakaguma,H., Int. J.ofExp.Path, 76:65-73, 1995) • 1. Hair on the dorsal skin of male Wistar rats (180g) was clipped and shaved, whilst the rats were under anaesthesia, 24 hours prior to the experiment. • 2. The rats were covered by a black plastic sheeting, with two rectangular holes (about 1cm^2) cut out, thus allowing two exposure sites on the dorsal skin whilst protecting the rest of the animal. • 3. The rats were then exposed to UV-B light (302nm) at a distance of 10cm for six minutes and thirty seconds. The total W-B exposure was 2.4J/cm^2 as measured using a UV-X radiometer. • 4. The test compound was then placed onto one of the exposed areas and an unexposed area at a concentration of 100µg/5µl, in a suitable vehicle solution. • 5. Application of the test compound was repeated for five days. • 6. Histological post-mortem sections were taken on the fifth day, and stained using haematoxylin and eosin. The number ofepidermal cell layers and the epidermal thickness was counted and measured at random. Five animals were used per test group."}, "[4]": {"tested_on": "swiss 3T3 mouse fibroblast cells", "assay": "Cell culture 3[H] thymidine assay, Example 6.1 cytotoxicity testing (normal cell growth)", "assay_type": "cell-based", "settings": "cytotoxicity, no TPA", "method": "as §1, §2"}, "[5]": {"settings": "Conc. 10µg test compound in 500µl PRP"}, "[6]": {"settings": "Conc. 50µg test compound in 500µl PRP"}, "[7]": {"settings": "Active Compound Only, unexposed area, 100µg/5µl"}, "[8]": {"settings": "UV Exposure + Active Compound versus UV Exposure, 100µg/5µl"}, "[9]": {"settings": "UV Exposure + Active Compound, 100µg/5µl topical"}}, "data": [{"smiles": "O=C(/C=C/c1ccc(O)cc1)c1ccc(O)cc1O", "note": "[Isoliquiritigenin, isoliquiritigenin]", "values": [{"measurement": "Percentage Inhibition of 3T3 Swiss Fibroblast Growth, Example 6.3", "setting": "[1]; Concentration 0.01 µg", "value": 31, "unit": "%"}, {"measurement": "Percentage Inhibition of 3T3 Swiss Fibroblast Growth, Example 6.3", "setting": "[1]; Concentration 0.1 µg", "value": 39, "unit": "%"}, {"measurement": "Percentage Inhibition of 3T3 Swiss Fibroblast Growth, Example 6.3", "setting": "[1]; Concentration 1 µg", "value": 50, "unit": "%"}, {"measurement": "Percentage Inhibition of 3T3 Swiss Fibroblast Growth, Example 6.3", "setting": "[1]; Concentration 10 µg", "value": 47, "unit": "%"}, {"measurement": "Percentage Inhibition of 3T3 Swiss Fibroblast Growth, Example 6.3", "setting": "[1]; Concentration 20 µg", "value": 61, "unit": "%"}, {"measurement": "Percentage Inhibition of ADP Induced Aggregation", "setting": "[2]; [5]", "value": 20, "unit": "%"}, {"measurement": "Percentage Inhibition of TPA Induced Aggregation", "setting": "[2]; [5]", "value": 3, "unit": "%"}, {"measurement": "Percentage Inhibition of ADP Induced Aggregation", "setting": "[2]; [6]", "value": 26, "unit": "%"}, {"measurement": "Percentage Inhibition of TPA Induced Aggregation", "setting": "[2]; [6]", "value": 13, "unit": "%"}, {"measurement": "inhibiting blood platelet aggregation, result in words", "setting": "[2]; comparison among the three chalcones, especially ADP induced aggregation", "value": "most active"}, {"measurement": "No. of cells (epidermal proliferation as compared to the control, no treatment)", "setting": "[3]; [7]", "value": 103, "unit": "%"}, {"measurement": "Thickness (epidermal thickening as compared to the control, no treatment)", "setting": "[3]; [7]", "value": 102, "unit": "%"}, {"measurement": "Percentage inhibition of epidermal proliferation (No. of cells, in brackets)", "setting": "[3]; [8]", "value": "(77) %"}, {"measurement": "Percentage inhibition of epidermal thickening (in brackets)", "setting": "[3]; [8]", "value": "(71) %"}, {"measurement": "No. of cells (epidermal proliferation as compared to the control, no treatment)", "setting": "[3]; [9]", "value": 119, "unit": "%"}, {"measurement": "Thickness (epidermal thickening as compared to the control, no treatment)", "setting": "[3]; [9]", "value": 116, "unit": "%"}, {"measurement": "Percentage Inhibition of 3T3 Swiss Fibroblast Growth, Example 6.1", "setting": "[4]; Concentration 0.01 µg", "value": 20, "unit": "%"}, {"measurement": "Percentage Inhibition of 3T3 Swiss Fibroblast Growth, Example 6.1", "setting": "[4]; Concentration 0.1 µg", "value": 18, "unit": "%"}, {"measurement": "Percentage Inhibition of 3T3 Swiss Fibroblast Growth, Example 6.1", "setting": "[4]; Concentration 1 µg", "value": 32, "unit": "%"}, {"measurement": "Percentage Inhibition of 3T3 Swiss Fibroblast Growth, Example 6.1", "setting": "[4]; Concentration 10 µg", "value": 32, "unit": "%"}, {"measurement": "Percentage Inhibition of 3T3 Swiss Fibroblast Growth, Example 6.1", "setting": "[4]; Concentration 20 µg", "value": 54, "unit": "%"}]}]}
